Experimental findings from ChEMBL document CHEMBL1201862, “PubChem BioAssay data set” (2004) are described below.

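Dose response: 5 concentrations. Exposure: 48 h. Format: 96-well plates. Endpoint: linear interpolation; highest concentration if not reached. GI50 marks 50% less growth.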 The source made the active and inactive calls. Rule as the data show it: active = GI50 up to about 1.1 µM and inactive = higher. A value given as a limit tells only on which side of the number the result lay.

Test systems include RPMI-8226; 786-0; IGROV-1; SK-MEL-5; HL-60; HOP-62; OVCAR-8; K562; HCT-116; Malme-3M; A549; HCT-15; SW-620; SR; ACHN; A498.
Holding throughout (assay): DTP human tumour cell line panel, 48 h

By GI50 is commonly meant the concentration that inhibits growth by half.

For the compound `CCCCCCCCCC(=O)Oc1cccc2onc(C)c12`, the GI50 with RPMI-8226 is > 100 µM (inactive); in the assay on 786-0 it was > 100 µM (inactive); with IGROV-1 it was > 100 µM (inactive); in the assay on SK-MEL-5, > 100 µM (inactive); in the assay with HL-60, 19.4 µM (inactive); in the assay with HOP-62, > 100 µM (inactive). The GI50 was > 100 µM (inactive) in the assay on OVCAR-8; 73.1 µM (inactive) in the assay with K562; > 100 µM (inactive) with HCT-116; > 100 µM (inactive) in the assay on Malme-3M; > 100 µM (inactive) with A549; over 100 µM in the assay with HCT-15. Moreover, the GI50 was > 100 µM (inactive) in the assay on SW-620, 49 µM (inactive) with SR and > 100 µM (inactive) in the assay with ACHN.
As for `CC(C)(C)NN=C1C(C)(C)C(=NNC(C)(C)C)C1(C)C`, the GI50 in the assay with RPMI-8226, in the assay with 786-0, in the assay on IGROV-1, in the assay on SK-MEL-5, in the assay on HL-60 and in the assay with HOP-62 was > 100 µM (inactive) in each case. The GI50 in the assay on OVCAR-8 was > 100 µM (inactive); with K562, > 100 µM (inactive); in the assay with HCT-116 it was > 100 µM (inactive); in the assay with Malme-3M it was > 100 µM (inactive); in the assay with A549 it was > 100 µM (inactive); in the assay with HCT-15, over 100 µM. Moreover, the GI50 in the assay on SW-620, with SR and in the assay with ACHN was > 100 µM (inactive) each time.
On to `Cc1cn(C2CC(n3cncn3)C(C(C)O)O2)c(=O)[nH]c1=O` (stereo not given), for which the GI50 with RPMI-8226, in the assay on 786-0, in the assay with IGROV-1, in the assay with SK-MEL-5, in the assay on HL-60 and with OVCAR-8 was > 100 µM (inactive) in each case. In addition, the GI50 with K562 was > 100 µM (inactive); with HCT-116, > 100 µM (inactive); in the assay with Malme-3M, > 100 µM (inactive); with A549, > 100 µM (inactive); in the assay with HCT-15 it was over 100 µM; in the assay on SW-620 it was > 100 µM (inactive). The GI50 with ACHN was > 100 µM (inactive).
Consider `C=C(C)C1CCC2(C)CC1c1c(c(C)cc3c1[nH]c1ccccc13)O2` (stereo not given), for which the GI50 was > 25 µM (inactive) in the assay with RPMI-8226; > 25 µM (inactive) in the assay with 786-0; > 25 µM (inactive) with IGROV-1; > 25 µM (inactive) in the assay with SK-MEL-5; 11.9 µM (inactive) with HL-60; 19 µM (inactive) in the assay on HOP-62. For the same compound, the GI50 is > 25 µM (inactive) in the assay with OVCAR-8; 12 µM (inactive) with K562; > 25 µM (inactive) in the assay with HCT-116; > 25 µM (inactive) in the assay with Malme-3M; > 25 µM (inactive) with A549; over 25 µM in the assay with HCT-15. Moreover, the GI50 in the assay on SW-620, in the assay on SR and in the assay on ACHN was > 25 µM (inactive) each time.
As for `C/C(CN1C(=O)c2ccccc2C1=O)=N\NS(C)(=O)=O`, the GI50 in the assay with RPMI-8226, in the assay on 786-0, in the assay with IGROV-1, in the assay on SK-MEL-5, with HL-60 and in the assay on HOP-62 was > 100 µM (inactive) each time. The GI50 with OVCAR-8, in the assay on K562, in the assay with HCT-116, in the assay on Malme-3M, with A498 and with A549 was > 100 µM (inactive) each time. In addition, the 50% growth inhibitory concentration (GI50) in the assay on HCT-15 was over 100 µM; with SW-620, > 100 µM (inactive); in the assay on ACHN, > 100 µM (inactive).
Take `COC1=CC(=O)C2C(C1=O)C(c1ccc(Cl)cc1)[C@@H]2C` (stereo not given in full): the GI50 in the assay on RPMI-8226 was 39.7 µM (inactive); with 786-0 it was 24.4 µM (inactive); in the assay on IGROV-1 it was 55.3 µM (inactive); in the assay on SK-MEL-5, 19.5 µM (inactive); with HL-60, 22.2 µM (inactive); in the assay on HOP-62 it was 39.1 µM (inactive). Also, the GI50 was 20.6 µM (inactive) with OVCAR-8; 28.3 µM (inactive) with K562; 15.7 µM (inactive) with HCT-116; 23 µM (inactive) in the assay on Malme-3M; 58.9 µM (inactive) with A498; 34 µM (inactive) in the assay on A549. Also, the GI50 is 17.1 µM with HCT-15, 27.4 µM (inactive) with SW-620 and 17.3 µM (inactive) in the assay on ACHN.
Turning to `Brc1ccc2c(c1)C1(c3cc(Br)ccc3-2)c2cc(Br)ccc2-c2ccc(Br)cc21`, the GI50 in the assay on RPMI-8226, in the assay on 786-0, in the assay on IGROV-1, in the assay with HL-60, in the assay on HOP-62 and in the assay on OVCAR-8 was > 100 µM (inactive) in each case. Further, the GI50 was > 100 µM (inactive) in the assay on K562; > 100 µM (inactive) in the assay with HCT-116; > 100 µM (inactive) in the assay with Malme-3M; > 100 µM (inactive) in the assay with A549; over 100 µM in the assay on HCT-15; > 100 µM (inactive) with SW-620. The GI50 in the assay with SR and in the assay with ACHN was > 100 µM (inactive) in each case.
In the case of `O=C(c1ccccc1)C(c1ccccc1)C1(O)C(=O)Nc2c(Cl)ccc(Cl)c21` (stereo not given), the GI50 was 12.2 µM (inactive) in the assay with RPMI-8226; 19.5 µM (inactive) with 786-0; 20.6 µM (inactive) with IGROV-1; 18.2 µM (inactive) in the assay with SK-MEL-5; 15.6 µM (inactive) with HL-60; 21.4 µM (inactive) with HOP-62. Besides, the GI50 with OVCAR-8 was 19.4 µM (inactive); with K562, 12.5 µM (inactive); in the assay on HCT-116 it was 16.3 µM (inactive); in the assay with Malme-3M, 17.4 µM (inactive); in the assay on A498 it was 25.3 µM (inactive); in the assay on A549 it was 26.1 µM (inactive). Also, the GI50 with HCT-15 was 18.4 µM; in the assay with SW-620, 16.7 µM (inactive); in the assay with ACHN it was 16.9 µM (inactive).
On to `CCOC(=O)C(C)(c1c(C)[nH]c2ccccc12)c1c(C)[nH]c2ccccc12`, for which the GI50 was 16.8 µM (inactive) in the assay with RPMI-8226; 19.1 µM (inactive) in the assay on 786-0; 20.6 µM (inactive) in the assay on IGROV-1; 15.7 µM (inactive) in the assay on SK-MEL-5; 12.1 µM (inactive) in the assay with HL-60; 18.9 µM (inactive) with HOP-62. The GI50 in the assay with OVCAR-8 is 26.8 µM (inactive); in the assay on K562 it was 8.36 µM (inactive); with HCT-116, 12.5 µM (inactive); in the assay with Malme-3M, 17.3 µM (inactive); in the assay on A498, 17.8 µM (inactive); with A549, 19 µM (inactive). In addition, the GI50 with HCT-15 is 15 µM; in the assay with SW-620, 16.9 µM (inactive); in the assay on ACHN, 19.5 µM (inactive).
`CCOC(=O)C1S/C(=N\c2ccc(Cl)c(Cl)c2)N=C1C` (stereo not given): the GI50 was 17.8 µM (inactive) with RPMI-8226; 17.5 µM (inactive) with 786-0; 48.8 µM (inactive) in the assay with IGROV-1; 20.4 µM (inactive) with HL-60; 56.9 µM (inactive) in the assay on HOP-62; 35.4 µM (inactive) in the assay on OVCAR-8. Besides, the GI50 is 13.4 µM (inactive) with K562; 51.6 µM (inactive) in the assay with Malme-3M; 26 µM (inactive) in the assay on A498; 28.4 µM (inactive) in the assay with A549; 20.8 µM in the assay with HCT-15; 38 µM (inactive) with SW-620. Also, the GI50 in the assay on ACHN is 29.5 µM (inactive).
